Data reported in patent publication US20040171613A1, “Therapeutic agent for non-immediate type allergic diseases” (JAPAN TOBACCO INC., priority 2001, published 2004).

Experiments:
[1] = tested on: rat mast cell line RBL-2H3; assay: leukotriene production from rat mast cell line; format: cell-based; settings: anti-DNP IgE sensitization, DNP-BSA stimulation; 0.1 to 10 μM
Description: Then, the resulting solutions were diluted with E-MEM (EAGLE-MEM; Nikken Biomedical Lab.) to prepare solutions of 100 to 1 μM (1% DMSO solution). To act the solutions on cells, they were further diluted to 10 μM to 0.1 μM (0.1% DMSO solution).
1 mM PIPES (Dojin Molecular Technologies, Inc.), […], 0.5 mM KCl, 0.06 mM MgCl2, 0.1 mM CaCl2, 0.55 mM glucose and 0.1% BSA (bovine serum albumin; Sigma) were prepared with purified water and then adjusted to pH 7.4 using NaOH.
1 mg/mL anti-DNP IgE (monoclonal murine anti-DNP IgE; Yamasa Corp.) was diluted to 1000 fold with the PIPES buffer to prepare a 1 μg/mL solution.
10 mg/mL DNP-BSA was diluted to a concentration of 10 μg/mL with the PIPES buffer.
Culture medium: E-MEM containing heat-inactivated 10% FCS (fetal calf serum; Morgate Biotech), 100 units/mL penicillin and 100 μg/mL streptomycin (in the form of penicillin/streptomycin; GIBCO).
After centrifuging and washing rat mast cell line RBL-2H3 (Human Science; 1×10^6cells/mL/tube) with the above-described culture medium, the cells were resuspended in the culture medium and cultured in a 75-cm^2 flask (Falcon 353136) for 3 days. […]
30 minutes after the antigen stimulation, 20 μL/well supernatant was recovered and the LTs amount was measured according to manufacturer's protocol of LTs EIA kit (Amersham Pharmacia).

[2] = tested on: DNFB-induced allergic dermatitis; assay: murine DNFB-induced allergic dermatitis model; format: in vivo, mouse
Description: The model is produced by repeating antigen sensitization and induction in mouse to induce contact dermatitis that involves increase of IgE antibody titer, i.e., inflammation similar to atopic dermatitis (J. Allergy Clin. Immunol., 100 (6Pt2), 39-44, December 1997).
Furthermore, by dilution, 0.1 mg/mL and 0.01 mg/mL suspensions were prepared. In addition, as positive controls, 0.5 mg/mL, 0.2 mg/mL and 0.1 mg/mL solutions of prednisolone (Sigma) were similarly prepared.
During the period from the next day of the third antigen application to the next day of the fifth antigen application, 10 mL/kg of the above-described test compound was administered once a day 15 times in total.
The difference of thickness was used as an index of swelling. FIGS. 1 and 2 show the results of the measurement at the fourth and fifth antigen applications, together with the results of the positive controls.
24 hours after the fifth antigen application, the spleen was harvested from the mouse exsanguinated under anesthesia with ether. The wet weight of the spleen was measured.

[3] = molecular target: CB2 (Homo sapiens, UniProt P34972); assay: cAMP production in forskolin-stimulated hCB2-expressing CHO cells; format: cell-based; parameters: expressed in transfected cells; host or cells: CHO cells
[4] = tested on: antigen-induced asthma; assay: antigen-induced immediate type asthma, late-type asthma and airway hypersensitivity in guinea pigs; format: in vivo, guinea pig; settings: oral, compound A 10, 30, 100 mg/kg, positive controls 30 mg/kg
Description: The test compound was further diluted to 20, 6 and 2 mg/mL on needed basis. As positive controls, 6 mg/mL pranlukast hydrate (extracted from Onon™ (Ono Pharmaceutical Co., Ltd.)) and 6 mg/mL prednisolone (Sigma) were similarly prepared.
Sensitization: Using an ultrasonic nebulizer (NE-U12; OMRON), a 6-weeks old male Hartley guinea pig (Kudo, Co., Ltd.) was continuously inhaled with 1% OVA (ovalbumin; Sigma)-containing physiological saline for 10 minutes per day for 8 consecutive days.
Antigen challenge: One week after the last sensitization, 2% OVA was similarly inhaled for 5 minutes. 24 hours before and one hour after the OVA challenge, metyrapone-containing physiological saline (Aldrich, 10 mg/mL) was administered intravenously and 30 minutes before the OVA induction, pyrilamine-containing physiological saline (Sigma, 10 mg/kg) was administered intraperitoneally.
During the 8 days of sensitization, the test compound was given one hour before the sensitization. On the day of the antigen challenge, the test compound was given one hour before the challenge. As solvent controls, the vehicle was similarly administered in accordance with OVA induction and physiological saline induction.
As positive controls, pranlukast hydrate was administered one hour before the challenge, while prednisolone was administered 16 hours and 2 hours before the challenge. The animals were fasted 16 to 18 hours before the oral administration.
Using total respiratory function analysis system (Pulmos-I, M.I.P.S. Company), the pre value was measured. Subsequently, specific airway resistance (hereinafter referred to as sRaw) per 100 breathes was measured one minute and 2, 4, 5, 6, 7 and 8 hours after the OVA challenge, and further once between 22 to 26 hours after the challenge, respectively. The average was used as sRaw at each measured time point. The increment ratio of sRaw was calculated by the following formula.
Increment ratio of sRaw (%)=[(sRaw at each measured time point −sRaw before the challenge)/(sRaw before the challenge)]×100
Twenty-two to 26 hours after the antigen challenge, each of 0.0625, 0.125, 0.25, 0.5, 1 and 2 mg/mL solutions of physiological saline and acetylcholine (hereinafter referred to as ACh) were sequentially inhaled for one minute, until the sRaw was 2-fold or more to the baseline sRaw (sRaw after inhalation of physiological saline). Based on the ACh concentration and the concentration-resistance curve of sRaw, the ACh concentration required for the sRaw to achieve 100% increase from the baseline sRaw, i.e., PC100ACh was determined.

CB2, sequence (P34972 whole entry): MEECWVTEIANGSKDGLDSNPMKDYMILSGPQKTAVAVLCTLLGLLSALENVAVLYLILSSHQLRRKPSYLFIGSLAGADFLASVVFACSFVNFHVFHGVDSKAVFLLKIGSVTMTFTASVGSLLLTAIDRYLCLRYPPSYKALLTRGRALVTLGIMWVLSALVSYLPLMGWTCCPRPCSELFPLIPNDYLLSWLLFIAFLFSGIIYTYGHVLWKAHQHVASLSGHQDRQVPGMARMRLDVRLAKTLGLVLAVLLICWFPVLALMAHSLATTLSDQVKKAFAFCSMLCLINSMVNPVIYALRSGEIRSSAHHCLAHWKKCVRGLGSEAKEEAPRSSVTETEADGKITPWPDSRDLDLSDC

## CCCCCOc1c(OC)ccc2cc(C(=O)NCc3ccc4c(c3)OCO4)c(=O)[nH]c12 [Compound A, N-(benzo[1,3]dioxol-5-ylmethyl)-7-methoxy-2-oxo-8-pentyloxy-1,2-dihydroquinoline-3-carboxamide]
[1]
  leukotriene production (C4/D4/E4): suppressive effect
[2]; 24 hours after the fifth antigen application, oral dosing
  spleen wet weight: No decrease of spleen weight
[2]; BALB/c mouse, oral once a day from day after third antigen application, 24 hours after fourth and fifth antigen application
  ear swelling (increase of the thickness of the ear): significantly suppressed ear swelling
[3]
  effect on agonistic action of 2-AG-E: suppress the agonistic action of 2-AG-E
[3]; CHO, read-out: Amount of cAMP production compared to control (ratio (%))
  cAMP production relative to control at 0.1 µM: 430%
[4]; 22 to 26 hours after antigen challenge
  airway hypersensitivity (PC100ACh): suppressed
[4]
  immediate type asthma response (sRaw immediately after antigen challenge): suppressed
  late asthmatic response (sRaw over 4 to 8 hours after antigen challenge): suppressed
